In PubChem BioAssay (NCI):
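Growth conditions: 96-well plates. Treatment: test compound, 48 hours, 5 concentrations. Analysis: linear interpolation between bracketing concentrations; unreached endpoints set to highest concentration. At the TGI there is no net growth.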

How the values were obtained:
Experiment in all cases: growth of human tumour cells (NCI), 48 h
SW-620 colon = test system: SW-620 colon
CCRF-CEM leukemia = test system: CCRF-CEM leukemia
CAKI-1 renal = test system: CAKI-1 renal
OVCAR-5 ovarian = test system: OVCAR-5 ovarian
NCI/ADR-RES ovarian = test system: NCI/ADR-RES ovarian
COLO 205 colon = test system: COLO 205 colon
UO-31 renal = test system: UO-31 renal
HCT-116 colon = test system: HCT-116 colon
RXF 393 renal = test system: RXF 393 renal
OVCAR-4 ovarian = test system: OVCAR-4 ovarian
SNB-75 CNS = test system: SNB-75 CNS
HS 578T breast = test system: HS 578T breast
RPMI-8226 leukemia = test system: RPMI-8226 leukemia
SK-OV-3 ovarian = test system: SK-OV-3 ovarian
KM12 colon = test system: KM12 colon
SK-MEL-28 melanoma = test system: SK-MEL-28 melanoma
786-0 renal = test system: 786-0 renal
SR leukemia = test system: SR leukemia
TK-10 renal = test system: TK-10 renal
BT-549 breast = test system: BT-549 breast
HL-60(TB) leukemia = test system: HL-60(TB) leukemia
UACC-257 melanoma = test system: UACC-257 melanoma
OVCAR-8 ovarian = test system: OVCAR-8 ovarian
HOP-92 NSCLC = test system: HOP-92 NSCLC
NCI-H460 lung = test system: NCI-H460 lung
HOP-62 NSCLC = test system: HOP-62 NSCLC
A498 renal = test system: A498 renal
IGROV1 ovarian = test system: IGROV1 ovarian
MDA-MB-435 = test system: MDA-MB-435
MALME-3M melanoma = test system: MALME-3M melanoma
M14 melanoma = test system: M14 melanoma
SK-MEL-2 melanoma = test system: SK-MEL-2 melanoma
SF-268 CNS = test system: SF-268 CNS
EKVX NSCLC = test system: EKVX NSCLC
U251 CNS = test system: U251 CNS
NCI-H226 lung = test system: NCI-H226 lung
NCI-H522 lung = test system: NCI-H522 lung
DU-145 prostate = test system: DU-145 prostate
A549 NSCLC = test system: A549 NSCLC
SN12C renal = test system: SN12C renal
ACHN renal = test system: ACHN renal
OVCAR-3 ovarian = test system: OVCAR-3 ovarian
SK-MEL-5 melanoma = test system: SK-MEL-5 melanoma
MOLT-4 leukemia = test system: MOLT-4 leukemia
HT29 colon = test system: HT29 colon
HCT-15 colon = test system: HCT-15 colon
T-47D breast = test system: T-47D breast
LOX IMVI melanoma = test system: LOX IMVI melanoma
SNB-19 CNS = test system: SNB-19 CNS
PC-3 prostate = test system: PC-3 prostate
NCI-H23 lung = test system: NCI-H23 lung
SF-295 CNS = test system: SF-295 CNS
MDA-MB-231 breast = test system: MDA-MB-231 breast
MDA-N = test system: MDA-N
K-562 leukemia = test system: K-562 leukemia
UACC-62 melanoma = test system: UACC-62 melanoma
HCC-2998 colon = test system: HCC-2998 colon
MCF7 breast = test system: MCF7 breast
SF-539 CNS = test system: SF-539 CNS

SMILES: Clc1ccc(OCc2nnc3sc(-c4ccc(-c5ccc(Cl)cc5Cl)o4)nn23)cc1
- TGI (SW-620 colon): > 100 µM
- TGI (CCRF-CEM leukemia): > 100 µM
- TGI (CAKI-1 renal): > 100 µM
- TGI (OVCAR-5 ovarian): > 100 µM
- TGI (NCI/ADR-RES ovarian): > 100 µM
- TGI (COLO 205 colon): > 100 µM
- TGI (UO-31 renal): > 100 µM
- TGI (HCT-116 colon): > 100 µM
- TGI (RXF 393 renal): 54 µM
- TGI (OVCAR-4 ovarian): > 100 µM
- TGI (SNB-75 CNS): 31.3 µM
- TGI (HS 578T breast): > 100 µM
- TGI (RPMI-8226 leukemia): > 100 µM
- TGI (SK-OV-3 ovarian): > 100 µM
- TGI (KM12 colon): > 100 µM
- TGI (SK-MEL-28 melanoma): > 100 µM
- TGI (786-0 renal): > 100 µM
- TGI (SR leukemia): > 100 µM
- TGI (TK-10 renal): > 100 µM
- TGI (BT-549 breast): > 100 µM
- TGI (HL-60(TB) leukemia): > 100 µM
- TGI (UACC-257 melanoma): > 100 µM
- TGI (OVCAR-8 ovarian): > 100 µM
- TGI (HOP-92 NSCLC): > 100 µM
- TGI (NCI-H460 lung): > 100 µM
- TGI (HOP-62 NSCLC): > 100 µM
- TGI (A498 renal): > 100 µM
- TGI (IGROV1 ovarian): > 100 µM
- TGI (MDA-MB-435): > 100 µM
- TGI (MALME-3M melanoma): > 100 µM
- TGI (M14 melanoma): > 100 µM
- TGI (SK-MEL-2 melanoma): > 100 µM
- TGI (SF-268 CNS): > 100 µM
- TGI (EKVX NSCLC): > 100 µM
- TGI (U251 CNS): > 100 µM
- TGI (NCI-H226 lung): > 100 µM
- TGI (NCI-H522 lung): > 100 µM
- TGI (DU-145 prostate): > 100 µM
- TGI (A549 NSCLC): > 100 µM
- TGI (SN12C renal): > 100 µM
- TGI (ACHN renal): > 100 µM
- TGI (OVCAR-3 ovarian): > 100 µM
- TGI (SK-MEL-5 melanoma): > 100 µM
- TGI (MOLT-4 leukemia): > 100 µM
- TGI (HT29 colon): > 100 µM
- TGI (HCT-15 colon): > 100 µM
- TGI (T-47D breast): > 100 µM
- TGI (LOX IMVI melanoma): > 100 µM
- TGI (SNB-19 CNS): > 100 µM
- TGI (PC-3 prostate): > 100 µM
- TGI (NCI-H23 lung): > 100 µM
- TGI (SF-295 CNS): > 100 µM
- TGI (MDA-MB-231 breast): > 100 µM
- TGI (MDA-N): > 100 µM
- TGI (K-562 leukemia): > 100 µM

SMILES: COC(=O)C1=C(C)NC(C)=C(C(=O)OC)C1c1ccc(N=O)cc1
- TGI (SW-620 colon): 12.9 µM
- TGI (CCRF-CEM leukemia): > 100 µM
- TGI (CAKI-1 renal): 27.9 µM
- TGI (OVCAR-5 ovarian): 32.9 µM
- TGI (NCI/ADR-RES ovarian): 50.9 µM
- TGI (COLO 205 colon): 24.5 µM
- TGI (UACC-62 melanoma): 30 µM
- TGI (UO-31 renal): 26.3 µM
- TGI (HCT-116 colon): 36.8 µM
- TGI (RXF 393 renal): 23.5 µM
- TGI (OVCAR-4 ovarian): 14.2 µM
- TGI (SNB-75 CNS): 26.1 µM
- TGI (HCC-2998 colon): 33.7 µM
- TGI (HS 578T breast): 40.8 µM
- TGI (RPMI-8226 leukemia): 5.02 µM
- TGI (SK-OV-3 ovarian): 25.5 µM
- TGI (KM12 colon): 33.4 µM
- TGI (SK-MEL-28 melanoma): 33.4 µM
- TGI (786-0 renal): 27.7 µM
- TGI (TK-10 renal): 29.2 µM
- TGI (BT-549 breast): 23 µM
- TGI (HL-60(TB) leukemia): > 100 µM
- TGI (UACC-257 melanoma): 23.2 µM
- TGI (OVCAR-8 ovarian): 21.7 µM
- TGI (HOP-92 NSCLC): 8.95 µM
- TGI (NCI-H460 lung): 41.9 µM
- TGI (MCF7 breast): 37 µM
- TGI (SF-539 CNS): 32 µM
- TGI (HOP-62 NSCLC): > 55.3 µM
- TGI (IGROV1 ovarian): 30.1 µM
- TGI (MDA-MB-435): 32.6 µM
- TGI (MALME-3M melanoma): 24.4 µM
- TGI (M14 melanoma): 23.3 µM
- TGI (SK-MEL-2 melanoma): 28.2 µM
- TGI (SF-268 CNS): 43.9 µM
- TGI (EKVX NSCLC): 34.1 µM
- TGI (U251 CNS): 32.2 µM
- TGI (NCI-H226 lung): 39.3 µM
- TGI (NCI-H522 lung): 6.61 µM
- TGI (DU-145 prostate): 19.2 µM
- TGI (A549 NSCLC): > 60.3 µM
- TGI (SN12C renal): 35.8 µM
- TGI (ACHN renal): 26.7 µM
- TGI (OVCAR-3 ovarian): 26.9 µM
- TGI (SK-MEL-5 melanoma): 30.9 µM
- TGI (MOLT-4 leukemia): > 100 µM
- TGI (HT29 colon): 40.8 µM
- TGI (HCT-15 colon): 23.9 µM
- TGI (T-47D breast): 44.7 µM
- TGI (LOX IMVI melanoma): 11.6 µM
- TGI (SNB-19 CNS): > 81.2 µM
- TGI (PC-3 prostate): 29.3 µM
- TGI (NCI-H23 lung): 38.9 µM
- TGI (SF-295 CNS): > 61.3 µM
- TGI (MDA-MB-231 breast): 25.2 µM
- TGI (MDA-N): 16.6 µM
- TGI (K-562 leukemia): > 100 µM
